Test results reported in patent US20220396580A1, “TRICYCLIC DILACTONE COMPOUND, AND PRODUCTION METHOD AND USE THEREOF” (SEOUL NATIONAL UNIVERSITY R&DB FOUNDATION, priority 2020, published 2022).

Columns and labels:
APP/PS1 transgenic mice = experiment: Amyloid-beta aggregates in brain tissue of APP/PS1 transgenic mice (thioflavine S / GFAP staining); type: in vivo, mouse; conditions: 8 mg/kg/day intraperitoneal for 3 weeks
Description: First, APP/PS1 transgenic mice (7.5-month-old, male, Jackson Laboratory, 9 to 10 mice/group) to which the genes of AD patients were injected were prepared. In the APP/PS1 transgenic mice, human amyloid-beta is expressed at a high level, and Alzheimer-like plaques are formed in the brain.
The prepared mice were intraperitoneally administered daily with rhizolutin at a dose of 8 mg/body weight (kg)/day for 3 weeks. As a negative control group, the prepared mice were intraperitoneally administered with a vehicle only.
Afterwards, the mouse brain was removed, and changes in amyloid-beta aggregates (in the form of oligomer or fibril) as AD biomarkers in the brain tissue were measured.

human A131-42 monomer [1] = target: T1, human A131-42 monomer (Homo sapiens, UniProt P05067); experiment: Inhibition of amyloid-beta aggregation (thioflavine-T fluorescence); type: biochemical; conditions: 25 μM amyloid-beta, 1 mM rhizolutin, 37° C., 120 hours
T1 construct: UniProt KB-P05067, a.a; 672 to 713
T1 sequence (P05067 672-713): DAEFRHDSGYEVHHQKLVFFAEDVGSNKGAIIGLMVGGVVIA
Description: An amyloid-beta solution was prepared by dissolving human A131-42 monomer (UniProt KB-P05067, a.a. 672 to 713) in DMSO to have a concentration of 10 mM. Then, the amyloid-beta solution was diluted with distilled water to prepare a solution having a concentration of 100 μM. Meanwhile, thioflavine-T (Sigma-Aldrich) was dissolved in 50 mM glycin buffer (pH 8.5) to have a concentration of 5 mM. Then, the resulting solution was diluted with 50 mM glycin buffer (pH 8.5) to have a concentration of 5 μM, and stored light-blocked in a dark room. To verify the inhibitory activity of rhizolutin on the amyloid-beta aggregation, the amyloid-beta solution was added to 1.5 mL microtubes to a concentration of 25 μM, and rhizolutin was added thereto at a concentration of 1 mM, followed by incubation at 37° C. for 120 hours. […] After a reaction was allowed for 5 minutes at room temperature in the darkroom, fluorescence was measured at an excitation wavelength of 450 nm and an emission wavelength of 485 nm by using a multi-mode microplate reader. Based on the fluorescence intensity of the group (control group) in which only amyloid-beta was treated and aggregated for 120 hours, the fluorescence intensity (%) of each group was calculated, and results are shown in FIG. 3A (one-way ANOVA test followed by Bonferroni's post-hoc comparison test, mean±SEM, ***: p<0.001).

human A131-42 monomer [2] = target: T1, human A131-42 monomer; experiment: Disaggregation of amyloid-beta aggregates (thioflavine-T fluorescence); type: biochemical
Description: An amyloid-beta solution was prepared by dissolving human A131-42 monomer (UniProt KB-P05067, a.a. 672 to 713) in DMSO to have a concentration of 10 mM. Then, the amyloid-beta solution was diluted with distilled water to prepare a solution having a concentration of 100 μM. Meanwhile, thioflavine-T (Sigma-Aldrich) was dissolved in 50 mM glycin buffer (pH 8.5) to have a concentration of 5 mM. Then, the resulting solution was diluted with 50 mM glycin buffer (pH 8.5) to have a concentration of 5 μM, and stored light-blocked in a dark room. In addition, to verify the activity of rhizolutin on disaggregation of the amyloid-beta aggregation, the amyloid-beta solution was added to a 1.5 mL microtube to a concentration of 25 μM and incubated at 37° C. for 72 hours. Then, 1 mM of rhizolutin was added to each microtube, followed by incubation at 37° C. for 72 hours. […] Then, fluorescence intensity was measured at an excitation wavelength of 450 nm and an emission wavelength of 485 nm by using a multi-mode microplate reader. Based on the fluorescence intensity of the group (control group) in which only amyloid-beta was treated and aggregated for 72 hours, the fluorescence intensity (%) of each group was calculated, and results are shown in FIG. 3B (mean±SEM, *: p<0.05, ***: p<0.001).

[3] = tested on: HT-22 mouse hippocampal neuronal cells and BV2 microglial cells; experiment: Immunoblotting of cleaved caspase-3 and Bcl-2 in cells treated with amyloid-beta aggregates; type: cell-based; conditions: amyloid-beta aggregates and 20 μM rhizolutin together, 24 hours
Excerpt: To verify the inhibitory activity of rhizolutin on the neurotoxicity of the amyloid-beta aggregates, changes in apoptosis-related biomarkers after exposing neurons to the neurotoxicity of the amyloid-beta aggregates were observed. Here, cleaved caspase-3, which is an apoptosis-inducing factor, and B-cell lymphoma 2 (Bcl-2), which inhibits apoptosis, were used as the biomarkers.
HT-22 mouse hippocampal neuronal cells and BV2 microglial cells were inoculated into a plate in a predetermined number. To each of the HT-22 cell line and the BV2 cell line, an amyloid-beta solution prepared in the same manner as in Example 2-2 was added at a concentration of […], followed by incubation at 37° C. for 24 hours. Afterwards, 20 μM of rhizolutin was added to each microtube, followed by incubation with amyloid-beta in a final concentration of 20 μM at 37° C. for 24 hours. As a negative control group, a group without rhizolutin and the amyloid-beta protein was used.
Cleaved caspase-3 and Bcl-2, which are apoptosis-related biomarkers, were identified by immunoblotting, and images thereof are shown in FIG. 5A.

Tau protein [4] = experiment: Inhibition of formation of tau aggregates (thioflavin T fluorescence); type: biochemical; conditions: 1 mM rhizolutin vs 20 mM EPPS
Description: Tau protein was prepared at a concentration of 1 mg/mL, and as described in Example 2-3, the prepared tau protein was added to a 1.5 mL microtube at a concentration of 0.5 mg/mL, and 1 mM of rhizolutin and 20 mM of EPPS were added thereto, followed by incubation at 37° C. for 120 hours.
(§1) Thioflavin T was added to the reaction, and the fluorescence intensity was measured at an excitation wavelength of 450 nm and an emission wavelength of 485 nm. As a negative control group, a vehicle without the tau protein and rhizolutin was used.
(§2) Based on the fluorescence intensity of the group in which only the tau protein was treated (positive control group), the fluorescence intensity (%) of each group was calculated, and results are shown in FIGS. 6A and 6B (mean±SEM, *: p<0.01, ***: p<0.001).

Tau protein [5] = experiment: Disaggregation of tau aggregates (thioflavin T fluorescence); type: biochemical; conditions: 1 mM rhizolutin vs 20 mM EPPS
Description: Meanwhile, the tau protein was added to a 1.5 mL microtube at a concentration of 0.5 mg/mL, and incubated at 37° C. for 48 hours. Then, rhizolutin was added at a concentration of 1 mM, and incubated at 37° C. for 72 hours. To compare the efficacy, EPPS was added at a concentration of 20 mM, and incubated under the same conditions.
as §1, §2

SMILES: CC[C@H]1C[C@@H]2/C(C)=C/[C@@H]3OC(=O)C[C@@H](O)C[C@H]3/C=C/C(C)=C\[C@H]2C(=O)O1 [rhizolutin]
- GFAP, biomarker of neuroinflammation (astrocytosis around the plaques) (APP/PS1 transgenic mice; brain tissue): also decreased
- number of amyloid-beta plaques in the hippocampus of the brain (APP/PS1 transgenic mice; thioflavine S, vs negative control group): decrease in the number of amyloid-beta plaques
- formation of amyloid-beta aggregates (oligomer or fibril) (human A131-42 monomer [1]): significantly inhibited
- disaggregation of amyloid-beta aggregates (oligomer or fibril) (human A131-42 monomer [2]; 25 μM amyloid-beta pre-aggregated 72 hours, then 1 mM rhizolutin 72 hours, 37° C.): disaggregated the amyloid-beta aggregates
- amyloid-beta disaggregation activity compared with EPPS (human A131-42 monomer [2]; 1 mM rhizolutin vs 20 mM EPPS, same conditions): better than that of EPPS
- expression of Bcl-2 [3]: the expression of Bcl-2 increased
- expression of cleaved caspase-3 [3]: the expression of cleaved caspase-3 decreased
- inhibiting formation of tau aggregates compared with EPPS (Tau protein [4]): better effects
- disaggregating tau aggregates compared with EPPS (Tau protein [5]): better effects
